US5264457A, “Phenyl amidines sulfonamides useful as platelet aggregation inhibitors” (G. D. Searle & Co., priority 1992, dated 1993)

System: platelet aggregation in dog PRP
Test: In-vitro platelet aggregation in PRP (ADP-induced, dog platelet-rich plasma)
Assay type: cell-based
Conditions: Canis lupus familiaris; for IC50: concentration inhibiting aggregation by 50%; for inhibition at 10 µM: test concentration of 10 μM
Experimental: Compounds of the invention were evaluated by an […] assay to determine compound activity as an inhibitors of platelet aggregation.
Healthy male or female dogs were fasted for 8 hours prior to drawing blood; then 30 mL whole blood was collected using a butterfly needle and 30 cc plastic syringe with 3 ml of 0.129M buffered sodium citrate (3.8%). The syringe was rotated carefully as blood was drawn to mix the citrate. Platelet-rich plasma (PRP) was prepared by centrifugation at 975×g for 3.17 minutes at room temperature, allowing the centrifuge to coast to a stop without braking. The PRP was removed from the blood with a plastic pipette and placed in a plastic capped, 50 ml Corning conical sterile centrifuge tube which was held at room temperature. Platelet poor plasma (PPP) was prepared by centrifuging the remaining blood at 2000×g for 15 minutes at room temperature allowing the centrifuge to coast to a stop without braking. The PRP was adjusted with PPP to a count of 2-3×10^8 s platelets per ml. 400 μL of the PRP preparation and 50 μL of the compound to be tested or saline were preincubated for 1 minute at 37° C. in a BioData aggregometer (BioData, Horsham, Pa.). 50 μL of adenosine 5'diphosphate (ADP) (50 μm final concentration) was added to the cuvettes and the aggregation was monitored for 1 minute. All compounds are tested in duplicate. Inhibition of aggregation for each sample was determined using the formula: % inhibition=(Tinh -Tbas)/(Tagg -Tbas ×100 where Tbas is % of light transmission in PRP (baseline), Tagg is % of light transmission in the aggregated PRP sample (saline control) and Tinh is % of light transmission in the sample containing the inhibitor.

`Cc1ccc(S(=O)(=O)NCC(CC(=O)O)NC(=O)CCCCc2ccc(C(=N)N)cc2)cc1` (racemic) [Example 1, (±)-3-[[5-[4-(Aminoiminomethyl)phenyl]-1-oxopentyl]amino]-4-[[(4-methylphenyl)sulfonyl]amino]butanoic acid] gave an IC50 of 1 µM and an inhibition at 10 µM of 100%.
`COc1ccc(S(=O)(=O)NCC(CC(=O)O)NC(=O)CCCCc2ccc(C(=N)N)cc2)cc1` (racemic) [Example 2, (±)-3-[[5-[4-(Aminoiminomethyl)phenyl]-1-oxopentyl]amino]-4-[[(4-methoxyphenyl)sulfonyl]amino]butanoic Acid] showed an IC50 of 8 µM and an inhibition at 10 µM of 100%.
In the case of `CCOC(=O)CC(CNS(=O)(=O)c1ccc(C)cc1)NC(=O)CCCCc1ccc(C(=N)N)cc1` (racemic) [Example 3, (±) Ethyl-3-[[5-[5-(Aminoiminomethyl)phenyl]-1-oxopentyl]amino]-4-[[(4-methylphenyl)sulfonyl]amino]butanoate], the inhibition at 10 µM is reported as 20%.
